Among the data in article PMC6272027, “Trithiocyanurate Complexes of Iron, Manganese and Nickel and Their Anticholinesterase Activity” (Molecules, 2014) are IC50 and HillSlope values, retold here.

Where only a bound is given, the exact number is not on record here.

The test concerns the target cholinesterases (rat brain homogenate). The experiment in a line: In vitro anticholinesterase inhibition test (rat brain homogenate, acetylcholine iodide substrate, automatic titration). Format: biochemical. The settings on record: anticholinesterase activity in vitro; for IC50: rat brain homogenate, substrate acetylcholine iodide; for HillSlope: nonlinear regression (GraphPad Prism). As for the experimental part:
In vitro inhibition test was conducted as described earlier. Solutions of the prepared Fe(L1)](ttcH2)(ClO4)·EtOH·H2O (1), [Mn3(phen)6(ttc)](ClO4)3 (2), and Ni2(L2)(ttcH)(ClO4)2·6H2O·EtOH (3) complexes of appropriate concentrations (concentration range from 10^−7 to 10^−1 M; 500 µL) were added to the suspension of rat brain homogenate (10 w/v in distilled water; 500 µL), solution of sodium chloride (3 M; 2.5 mL) and water (20 mL). Subsequently, a solution of acetylcholine iodide (0.02 M; 2.0 mL) was added (=starting of the enzyme reaction). The enzyme activity was immediately determined using of automatic titrator RTS 822 (Radiometer, Bronshoj, Denmark). The IC50 values were calculated from a plot of percent inhibition of cholinesterases versus its concentration. […] Nonlinear regression was performed using software for statistical analysis GraphPad Prism version 4 for Windows (GraphPad Software, San Diego, CA, USA; www.graphpad.com).

For orientation: IC50 means the midpoint of a concentration-inhibition curve. Turning to `O=S(=O)([O-])[O-].[Fe+2]` [FeSO4, reference compound], the IC50 is greater than 1000 µM.
`O=S(=O)([O-])[O-].[Ni+2]` [NiSO4, reference compound] returned a HillSlope of −0.3920 and an IC50 of 12900 µM.
The compound `O=S(=O)([O-])[O-].[Mn+2]` [MnSO4, reference compound] displayed an IC50 greater than 1000 µM.
As for [Mn3(phen)6(ttc)](ClO4)3 [compound 2], the HillSlope is given as 0.2280 and the IC50 was determined as 33.4 µM.
